Measurements taken from ChEMBL document CHEMBL1132099, “The design of potent and selective inhibitors of thrombin utilizing a piperazinedione template: part 2” (Bioorg Med Chem Lett, 1999).

How the values were obtained:
[1] = biological target: T1, Serine protease 1 (Homo sapiens, UniProt P07477); assay: Inhibitory concentration required against trypsin was determined
[2] = biological target: T2, Prothrombin (Homo sapiens, UniProt P00734); assay: Inhibitory concentration required against thrombin was determined
[3] = biological target: T2, Prothrombin; assay: Inhibition of thrombin
[4] = biological target: T1, Serine protease 1; assay: Compound was tested for percent inhibition against trypsin at 100 uM
[5] = test system: Trypsin; assay: Compound was tested for percent inhibition against trypsin at 100 uM

T1 sequence (P07477 whole entry): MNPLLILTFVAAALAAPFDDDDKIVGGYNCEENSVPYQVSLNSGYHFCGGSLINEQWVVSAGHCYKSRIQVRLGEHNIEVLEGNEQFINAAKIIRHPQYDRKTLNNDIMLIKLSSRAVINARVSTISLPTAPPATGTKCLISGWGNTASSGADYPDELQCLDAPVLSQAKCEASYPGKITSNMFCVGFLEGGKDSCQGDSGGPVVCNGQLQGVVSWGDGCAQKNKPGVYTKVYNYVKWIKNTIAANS

| IC50 [1] [nM] | IC50 [2] [nM] | Ki [3] [nM] | inhibition [4] [%] | inhibition [5] [%] | Compound |
| --- | --- | --- | --- | --- | --- |
| 45000 | 990 | – | – | – | N=C(N)N1CCCC(C[C@H](NC(=O)CN2C(=O)CN(CCc3ccccc3)C(=O)[C@H]2Cc2ccccc2)C(=O)c2nccs2)C1 (some centres not stated) |
| 4800 | 110 | – | – | – | N=C(N)N1CCCC(C[C@H](NC(=O)CN2C(=O)CN(CCCc3ccc(Cl)cc3)C(=O)[C@H]2Cc2ccccc2)C(=O)c2nccs2)C1 (some centres not stated) |
| 14000 | 160 | – | – | – | COc1ccc(CCCN2CC(=O)N(CC(=O)N[C@@H](CC3CCCN(C(=N)N)C3)C(=O)c3nccs3)[C@H](Cc3ccccc3)C2=O)cc1 (some centres not stated) |
| 21000 | 1230 | – | – | – | N=C(N)N1CCCC(C[C@H](NC(=O)CN2C(=O)CN(Cc3ccccc3)C(=O)[C@H]2Cc2ccccc2)C(=O)c2nccs2)C1 (some centres not stated) |
| 7800 | 80 | 8 | – | – | N=C(N)N1CCCC(C[C@H](NC(=O)CN2C(=O)CN(CCCc3ccccc3)C(=O)[C@H]2Cc2ccc(Cl)c(Cl)c2)C(=O)c2nccs2)C1 (some centres not stated) |
| 15000 | 340 | 32 | – | – | CCCCN1CC(=O)N(CC(=O)N[C@@H](CC2CCCN(C(=N)N)C2)C(=O)c2nccs2)[C@H](Cc2ccccc2)C1=O (some centres not stated) |
| 96 | 3400 | – | – | – | N=C(N)NCCC[C@H](NC(=O)CN1C(=O)CN(CCCc2ccccc2)C(=O)[C@H]1Cc1ccccc1)C(=O)c1nccs1 |
| 340 | 880 | – | – | – | C[C@@H]1C(=O)N(CCCc2ccccc2)CC(=O)N1CC(=O)N[C@@H](C[C@@H]1CCCN(C(=N)N)C1)C(=O)c1nccs1 |
| 4800 | 390 | 20 | – | – | N=C(N)N1CCCC(C[C@H](NC(=O)CN2C(=O)CN(CCCc3ccccc3)C(=O)[C@H]2Cc2cccc(Cl)c2)C(=O)c2nccs2)C1 (some centres not stated) |
| 8500 | 350 | – | – | – | N=C(N)N1CCCC(C[C@H](NC(=O)CN2C(=O)CN(CCCc3ccccc3)C(=O)[C@H]2C(c2ccccc2)c2ccccc2)C(=O)c2nccs2)C1 (some centres not stated) |
| – | – | – | 20 | 20 | N=C(N)NCCC[C@H](NC(=O)CN1C(=O)CN(CCCc2ccccc2)C(=O)[C@H]1Cc1ccccc1)C(=O)O |
| 8700 | 660 | 130 | – | – | N=C(N)N1CCCC(C[C@H](NC(=O)CN2C(=O)CN(CCCc3ccccc3)C(=O)[C@H]2Cc2ccccc2)C(=O)N2CCCC2)C1 (some centres not stated) |
| 7000 | 370 | – | – | – | CC(C)c1ccc(CCCN2CC(=O)N(CC(=O)N[C@@H](CC3CCCN(C(=N)N)C3)C(=O)c3nccs3)[C@H](Cc3ccccc3)C2=O)cc1 (some centres not stated) |
| 9100 | 210 | – | – | – | N=C(N)N1CCCC(C[C@H](NC(=O)CN2C(=O)CN(CCCc3ccc([N+](=O)[O-])cc3)C(=O)[C@H]2Cc2ccccc2)C(=O)c2nccs2)C1 (some centres not stated) |
| 17000 | 280 | – | – | – | N=C(N)N1CCCC(C[C@H](NC(=O)CN2C(=O)CN(CCCc3ccccc3)C(=O)[C@H]2Cc2ccc(Cl)cc2)C(=O)c2nccs2)C1 (some centres not stated) |
| 18200 | 160 | 55 | – | – | N=C(N)N1CCCC(C[C@H](NC(=O)CN2C(=O)CN(CCCc3ccccc3)C(=O)[C@H]2Cc2ccc3ccccc3c2)C(=O)c2nccs2)C1 (some centres not stated) |
| – | 170 | 3.5 | – | – | N=C(N)N1CCCC(C[C@H](NC(=O)CN2C(=O)CN(Cc3ccccc3)C(=O)[C@@H]2Cc2ccc3ccccc3c2)C(=O)c2nccs2)C1 (some centres not stated) |
| 25000 | 240 | – | – | – | N=C(N)N1CCCC(C[C@H](NC(=O)CN2C(=O)CN(CCCc3ccc(O)cc3)C(=O)[C@H]2Cc2ccccc2)C(=O)c2nccs2)C1 (some centres not stated) |
| 7200 | 250 | – | – | – | N=C(N)N1CCCC(C[C@H](NC(=O)CN2C(=O)CN(CCCc3ccc(Cl)c(Cl)c3)C(=O)[C@H]2Cc2ccccc2)C(=O)c2nccs2)C1 (some centres not stated) |
| 2300 | 440 | 55 | – | – | CNC(=O)[C@H](CC1CCCN(C(=N)N)C1)NC(=O)CN1C(=O)CN(CCCc2ccccc2)C(=O)[C@H]1Cc1ccccc1 (some centres not stated) |
| 9700 | 18 | 1.2 | – | – | N=C(N)N1CCCC(C[C@H](NC(=O)CN2C(=O)CN(CCCc3ccccc3)C(=O)[C@H]2Cc2ccccc2Cl)C(=O)c2nccs2)C1 (some centres not stated) |
| 9100 | 170 | 55 | – | – | N=C(N)N1CCC[C@@H](C[C@H](NC(=O)CN2C(=O)CN(CCCc3ccccc3)C(=O)[C@H]2Cc2ccccc2)C(=O)c2nccs2)C1 |
| – | – | – | 15 | 35 | N=C(N)NCCC[C@H](NC(=O)CN1C(=O)CN(CCCc2ccccc2)C(=O)[C@H]1Cc1ccccc1)C(N)=O |
| 4100 | 210 | – | – | – | Cc1ccc(CCCN2CC(=O)N(CC(=O)N[C@@H](CC3CCCN(C(=N)N)C3)C(=O)c3nccs3)[C@H](Cc3ccccc3)C2=O)cc1 (some centres not stated) |
| – | 6600 | 825 | 52 | – | N=C(N)N1CCCC(C[C@H](NC(=O)CN2C(=O)CN(CCCc3ccccc3)C(=O)[C@H]2Cc2ccccc2)C(=O)N2CCCCC2)C1 (some centres not stated) |
| 3700 | 150 | 80 | – | – | N=C(N)N1CCCC(C[C@H](NC(=O)CN2C(=O)CN(CCCc3ccccc3)C(=O)[C@H]2Cc2ccccc2)C(=O)c2nc3ccccc3s2)C1 (some centres not stated) |
